{"source": "the NIST ThermoML archive (doi:10.1007/s10765-006-0092-8)", "conditions": "gamma-ray densimeter", "note": "± gives the expanded uncertainty stated by the source.", "data": [{"smiles": "Fc1c(F)c(F)c(F)c(F)c1F", "note": "[hexafluorobenzene]", "values": [{"measurement": "mass density", "setting": "298.79 K, Liquid", "result": "1605.4 ± 3", "unit": "kg/m3"}, {"measurement": "mass density", "setting": "323.83 K, Gas", "result": 2.3, "unit": "kg/m3"}, {"measurement": "mass density", "setting": "323.83 K, Liquid", "result": "1548.5 ± 3", "unit": "kg/m3"}, {"measurement": "mass density", "setting": "343.88 K, Liquid", "result": "1499.4 ± 3", "unit": "kg/m3"}, {"measurement": "mass density", "setting": "363.85 K, Liquid", "result": "1450.5 ± 3", "unit": "kg/m3"}, {"measurement": "mass density", "setting": "383.91 K, Gas", "result": "15.5 ± 3", "unit": "kg/m3"}, {"measurement": "mass density", "setting": "383.91 K, Liquid", "result": "1397.9 ± 3", "unit": "kg/m3"}, {"measurement": "mass density", "setting": "403.92 K, Gas", "result": "25.8 ± 3", "unit": "kg/m3"}, {"measurement": "mass density", "setting": "403.92 K, Liquid", "result": "1342.1 ± 3", "unit": "kg/m3"}, {"measurement": "mass density", "setting": "423.93 K, Gas", "result": "40.6 ± 3", "unit": "kg/m3"}, {"measurement": "mass density", "setting": "423.93 K, Liquid", "result": "1281.2 ± 3", "unit": "kg/m3"}, {"measurement": "mass density", "setting": "443.9 K, Gas", "result": "62.7 ± 3", "unit": "kg/m3"}, {"measurement": "mass density", "setting": "443.9 K, Liquid", "result": "1213.9 ± 3", "unit": "kg/m3"}, {"measurement": "mass density", "setting": "463.89 K, Gas", "result": "95.3 ± 3", "unit": "kg/m3"}, {"measurement": "mass density", "setting": "463.89 K, Liquid", "result": "1135.3 ± 3", "unit": "kg/m3"}, {"measurement": "mass density", "setting": "483.9 K, Gas", "result": "146.7 ± 3", "unit": "kg/m3"}, {"measurement": "mass density", "setting": "483.9 K, Liquid", "result": "1037.1 ± 3.1", "unit": "kg/m3"}, {"measurement": "mass density", "setting": "493.93 K, Gas", "result": "186 ± 3", "unit": "kg/m3"}, {"measurement": "mass density", "setting": "493.93 K, Liquid", "result": "974 ± 3.1", "unit": "kg/m3"}, {"measurement": "mass density", "setting": "503.88 K, Gas", "result": "243.5 ± 3.1", "unit": "kg/m3"}, {"measurement": "mass density", "setting": "503.88 K, Liquid", "result": "892.3 ± 3.1", "unit": "kg/m3"}, {"measurement": "mass density", "setting": "508.9 K, Gas", "result": "287 ± 3.2", "unit": "kg/m3"}, {"measurement": "mass density", "setting": "508.9 K, Liquid", "result": "835.8 ± 3.3", "unit": "kg/m3"}, {"measurement": "mass density", "setting": "513.91 K, Gas", "result": "363.5 ± 3.6", "unit": "kg/m3"}, {"measurement": "mass density", "setting": "513.91 K, Liquid", "result": "744.6 ± 3.7", "unit": "kg/m3"}, {"measurement": "mass density", "setting": "513.92 K, Gas", "result": "363.5 ± 3.6", "unit": "kg/m3"}, {"measurement": "mass density", "setting": "513.92 K, Liquid", "result": "746.3 ± 3.7", "unit": "kg/m3"}, {"measurement": "mass density", "setting": "515.98 K, Gas", "result": "433.7 ± 10", "unit": "kg/m3"}, {"measurement": "mass density", "setting": "515.98 K, Liquid", "result": "670.3 ± 11", "unit": "kg/m3"}, {"measurement": "mass density", "setting": "516.28 K, Gas", "result": "455.8 ± 10", "unit": "kg/m3"}, {"measurement": "mass density", "setting": "516.28 K, Liquid", "result": "644.8 ± 11", "unit": "kg/m3"}, {"measurement": "mass density", "setting": "516.57 K, Gas", "result": "491.5 ± 10", "unit": "kg/m3"}, {"measurement": "mass density", "setting": "516.57 K, Liquid", "result": "610.1 ± 11", "unit": "kg/m3"}]}]}
